Data taken from patent EP2481744A1, “Aromatic bis-phosphoramidate additives as flame retardants for polymers” (EMPA Eidgenössische Materialprüfungs- und Forschungsanstalt, priority 2011, dated 2012).
Converted amounts (≈) assume the structure as drawn. Read-outs that look alike come from different tables or passages of the source.

Legend:
[1] = Solubility in deionized water (shaking flask, phosphorus content by ICP-OES); conditions: 0.5 gm in 50 ml deionized water, 21 °C, 16 hrs
[2] = deionized water, 16 h

| Solubility [1] [µg/mL] | Structure (SMILES) | Solubility [2] [µg/mL] |
| --- | --- | --- |
| 56 (≈ 128 µM) | CC(C)OP(=O)(Nc1ccc(NP(=O)(OC(C)C)OC(C)C)cc1)OC(C)C [p-PAPTiPE, Phosphoramidic acid, 1,4-phenylenebis-, tetra isopropyl ester] |  |
|  | CCOP(=O)(Nc1ccc(NP(=O)(OCC)OCC)cc1)OCC [p-PAPTEE, Phosphoramidic acid, 1,4-phenylenebis-, tetraethyl ester] | 47 (≈ 124 µM) |
